In publication PMC3195871 (Biochemical and biophysical research communications, 2011):

Target: T1, ArathEULS3 (Arabidopsis thaliana, UniProt Q945P1)
T1 sequence (Q945P1 2-317): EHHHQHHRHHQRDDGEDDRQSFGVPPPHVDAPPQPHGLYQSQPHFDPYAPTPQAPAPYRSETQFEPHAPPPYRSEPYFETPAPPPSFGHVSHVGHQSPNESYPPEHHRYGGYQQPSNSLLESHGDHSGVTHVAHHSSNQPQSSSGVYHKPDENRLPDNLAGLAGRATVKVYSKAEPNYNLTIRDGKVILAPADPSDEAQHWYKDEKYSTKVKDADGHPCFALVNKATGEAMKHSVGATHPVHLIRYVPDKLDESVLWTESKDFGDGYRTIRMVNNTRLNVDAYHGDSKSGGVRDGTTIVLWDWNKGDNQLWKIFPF
Assay: glycan microarray v4.[…], fluorescence
Type: binding
Conditions: glycan immobilised through spacer; relative to glycan with highest signal

| Compound | %RFU ^* / ArathEUL |
| --- | --- |
| Galα1-3Galβ1-3GlcNAcβ1-2Manα1-3(Galα1-3Galβ1-3GlcNAcβ1-2Manα1-6)Manβ1-4GlcNAcβ1-4GlcNAc-Sp19 | 46,6% |
| CC(=O)N[C@H]1[C@H](O[C@H]2[C@@H](O)[C@@H](CO)O[C@H](OCCCN)[C@@H]2NC(C)=O)O[C@H](CO)[C@@H](O)[C@@H]1O [GlcNAcβ1-3GalNAcα-Sp8] | 37,0% |
| CC(=O)N[C@H]1[C@H](O[C@H]2[C@@H](O)[C@@H](CO)O[C@@H](O[C@H]3[C@H](O[C@@H]4O[C@@H](C)[C@@H](O)[C@@H](O)[C@@H]4O)[C@@H](NC(C)=O)[C@H](O[C@H]4[C@@H](O)[C@@H](CO)O[C@@H](O[C@H]5[C@H](O[C@@H]6O[C@@H](C)[C@@H](O)[C@@H](O)[C@@H]6O)[C@@H](NC(C)=O)[C@H](OCCN)O[C@@H]5CO)[C@@H]4O)O[C@@H]3CO)[C@@H]2O)O[C@H](CO)[C@@H](O[C@@H]2O[C@H](CO)[C@H](O[C@H]3O[C@H](CO)[C@@H](O)[C@H](O)[C@H]3NC(C)=O)[C@H](O)[C@H]2O)[C@@H]1O [GlcNAcα1-4Galβ1-4GlcNAcβ1-3Galβ1-4(Fucα1-3)GlcNAcβ1-3Galβ1-4(Fucα1-3)GlcNAcβ-Sp0] | 37,2% |
| Galβ1-4(Fucα1-3)GlcNAcβ1-6GalNAc-Sp14 | 8,4% |
| Fucα1-2Galβ1-4(Fucα1-3)GlcNAcβ1-3GalNAcα-Sp14 | 100,0% |
| Fucα1-2Galβ1-4(Fucα1-3)GlcNAcβ1-2Manα1-6(Fucα1-2Galβ1-4(Fucα1-3)GlcNAcβ1-2Manα1-3)Manβ1-4GlcNAcβ1-4(Fucα1-6)GlcNAcβ-6AA | 18,9% |
| Neu5Acα2-3-Galβ1-3(Galβ1-4(Fucα1-3)GlcNAcβ1-6)GalNAc-Sp14 | 14,8% |
| CC(=O)N[C@H]1[C@H](OCCOCCOCCOCCOCCOCCN)O[C@H](CO)[C@@H](O[C@@H]2O[C@H](CO)[C@H](O)[C@H](O)[C@H]2O)[C@@H]1O [Galβ1-4GlcNAcβ-(OCH2CH2)6NH2] | 15,6% |
| GalNAcα1-3(Fucα1-2)Galβ1-4(Fucα1-3)GlcNAcβ1-3GalNAc-Sp14 | 73,6% |
| Galβ1-4GlcNAcβ1-4(Galβ1-4GlcNAcβ1-2)Manα1-3(GlcNAcβ1-4)(Galβ1-4GlcNAcβ1-6(Galβ1-4-GlcNAcβ1-2)Manα1-6)Manβ1-4GlcNAcβ1-4GlcNAc-Sp21 | 67,5% |
| Galβ1-4GlcNAcβ1-2Manα1-3(Galβ1-4GlcNAcβ1-2Manα1-6)Manβ1-4GlcNAcβ1-4GlcNAcβ-Sp12 | 9,1% |
| Galβ1-4(Fucα1-3)GlcNAcβ1-4Galβ1-4(Fucα1-3)GlcNAcβ1-4Galβ1-4(Fucα1-3)GlcNAcβ-Sp0 | 22,7% |
| CC(=O)N[C@H]1[C@H](OCCN)O[C@H](CO)[C@@H](O[C@@H]2O[C@H](CO)[C@H](O)[C@H](O[C@]3(C(=O)O)C[C@H](O)[C@@H](NC(C)=O)[C@H]([C@H](O)[C@H](O)CO)O3)[C@H]2O)[C@@H]1O[C@@H]1O[C@@H](C)[C@@H](O)[C@@H](O)[C@@H]1O [Neu5Acα2-3Galβ1-4(Fucα1-3)GlcNAcβ-Sp0] | 46,6% |
